Results as given in publication PMC7200626, “Nek7 conformational flexibility and inhibitor binding probed through protein engineering of the R-spine” (Biochemical Journal, 2020).

What was measured:
Nek7^SRS = target: T1, Nek7^SRS (Homo sapiens, UniProt Q8TDX7, L180F/L86H/Y97F); experiment: X-ray co-crystal structure, […] Å; IC50 from LabChip EZ Reader kinase assay; type: biochemical
T1 construct: Nek7 strong R-spine mutant, C-terminal non-cleavable His6-tag

Nek7^WT = target: T2, Nek7^WT (Homo sapiens, UniProt Q8TDX7); experiment: as above; type: biochemical
T2 construct: wild-type Nek7, C-terminal non-cleavable His6-tag
T2 sequence (Q8TDX7 whole entry): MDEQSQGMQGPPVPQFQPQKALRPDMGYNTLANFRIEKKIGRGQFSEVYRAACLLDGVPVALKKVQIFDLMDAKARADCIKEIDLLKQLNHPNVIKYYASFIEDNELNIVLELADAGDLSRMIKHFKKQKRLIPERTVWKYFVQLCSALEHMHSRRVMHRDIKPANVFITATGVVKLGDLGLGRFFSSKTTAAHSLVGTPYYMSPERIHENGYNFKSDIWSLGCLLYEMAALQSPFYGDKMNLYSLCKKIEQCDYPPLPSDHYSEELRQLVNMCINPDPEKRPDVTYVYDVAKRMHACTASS

T1 sequence (Q8TDX7 whole entry L86H/Y97F/L180F): as the sequence (Q8TDX7 whole entry) above, with L86H, Y97F, L180F counted along it

- IC50 (Nek7^SRS): 40.1 µM
- IC50 (Nek7^WT): 79 µM
Structure (SMILES): CN(C)CCCNS(=O)(=O)c1cccc(Nc2nc(OCC3CCCCC3)c3nc[nH]c3n2)c1 [compound 51]
